# Data published in patent US8114991B2, “Amino-1,3,5-triazines N-substituted with chiral bicyclic radicals, process for their preparation, compositions thereof, and their use as herbicides and plant growth regulators” (Bayer Cropscience AG, priority 2003, dated 2012).
# How the values were obtained:
# [1] = tested on: harmful plants such as Stellaria media, Lolium multiforum, Amaranthus retroflexus, Sinapis alba, Avena sativa and Setaria viridis; assay: Pre-emergence effect on weeds (greenhouse pot test); assay type: in vivo; details: application rate of 1 kg or less of active ingredient per hectare; scored after 3 to 4 weeks by comparison with untreated controls
# Description: Seeds or rhizome pieces of monocotyledonous and dicotyledonous weed plants were placed in sandy loam in plastic pots and covered with soil. The compounds according to the invention, which were formulated in the form of wettable powders or emulsion concentrates, were then applied to the surface of the soil cover as aqueous suspension or emulsion at various dosages with an application rate of 600 to 800 l of water per ha (converted).
# After the treatment, the pots were placed into a greenhouse and kept under good growth conditions for the weeds. The plant or emergence damage was scored visually after the test plants have emerged after an experimental time of 3 to 4 weeks by comparison with untreated controls.
# [2] = tested on: harmful plants such as Sinapis alba, Echinochloa crus-galli, Lolium multiflorum, Stellaria media, Cyperus iria, Amaranthus retroflexus, Setaria viridis, Avena …; assay: Post-emergence effect on weeds (greenhouse pot test); assay type: in vivo; details: application rate of 2 kg or less of active ingredient per hectare; treated in the three-leaf stage; scored after approx. 3 to 4 weeks by comparison with untreated controls
SMILES,pre-emergence control of harmful plants (plant or emergence damage scored visually) [1],herbicidal post-emergence activity against harmful plants (scored visually) [2]
C[C@@H]1Cc2ccccc2[C@@H]1Nc1nc(N)nc([C@@H](C)F)n1 [Compound 5.1],very good pre-emergence control,very good herbicidal post-emergence activity
Cc1ccc2c(c1)[C@H](Nc1nc(N)nc([C@@H](C)F)n1)[C@H](C)C2 [Compound 5.2],very good pre-emergence control,very good herbicidal post-emergence activity
CC(F)c1nc(N)nc(NC2c3ccccc3CC2C)n1 (stereo not drawn) [Compound 6.1],very good pre-emergence control,very good herbicidal post-emergence activity
Cc1ccc2c(c1)C(Nc1nc(N)nc(C(C)F)n1)C(C)C2 (stereo not drawn) [Compound 6.2],very good pre-emergence control,very good herbicidal post-emergence activity
Cc1nc(N)nc(N[C@H]2c3ccccc3C[C@@H]2C)n1 [Compound 7.1],very good pre-emergence control,very good herbicidal post-emergence activity
Cc1ccc2c(c1)[C@H](Nc1nc(C)nc(N)n1)[C@@H](C)C2 [Compound 7.2],very good pre-emergence control,very good herbicidal post-emergence activity
Cc1nc(N)nc(N[C@H]2c3cc(F)ccc3C[C@@H]2C)n1 [Compound 7.3],very good pre-emergence control,very good herbicidal post-emergence activity
Cc1nc(N)nc(N[C@H]2c3cc(Cl)ccc3C[C@@H]2C)n1 [Compound 7.4],very good pre-emergence control,very good herbicidal post-emergence activity
Cc1nc(N)nc(N[C@H]2c3ccccc3CC[C@@H]2C)n1 [Compound 7.11],very good pre-emergence control,very good herbicidal post-emergence activity
CC(C)c1nc(N)nc(N[C@H]2c3ccccc3C[C@@H]2C)n1 [Compound 7.24],very good pre-emergence control,very good herbicidal post-emergence activity
CCCc1nc(N)nc(N[C@H]2c3ccccc3C[C@@H]2C)n1 [Compound 7.47],very good pre-emergence control,very good herbicidal post-emergence activity
CCCc1nc(N)nc(N[C@H]2c3cc(C)ccc3C[C@@H]2C)n1 [Compound 7.48],very good pre-emergence control,very good herbicidal post-emergence activity
CCCc1nc(N)nc(N[C@H]2c3ccccc3CC[C@@H]2C)n1 [Compound 7.57],very good pre-emergence control,very good herbicidal post-emergence activity
COCc1nc(N)nc(N[C@H]2c3ccccc3C[C@@H]2C)n1 [Compound 7.70],very good pre-emergence control,very good herbicidal post-emergence activity
COCc1nc(N)nc(N[C@H]2c3cc(C)ccc3C[C@@H]2C)n1 [Compound 7.72],very good pre-emergence control,very good herbicidal post-emergence activity
CCc1nc(N)nc(N[C@H]2c3ccccc3C[C@@H]2C)n1 [Compound 7.74],very good pre-emergence control,very good herbicidal post-emergence activity
CCc1nc(N)nc(N[C@H]2c3cc(C)ccc3C[C@@H]2C)n1 [Compound 7.75],very good pre-emergence control,very good herbicidal post-emergence activity
CCc1nc(N)nc(N[C@H]2c3ccccc3CC[C@@H]2C)n1 [Compound 7.78],very good pre-emergence control,very good herbicidal post-emergence activity

SMILES,pre-emergence control of harmful plants (plant or emergence damage scored visually) [1],herbicidal post-emergence activity against harmful plants (scored visually) [2]
C[C@H]1CCc2ccccc2[C@@H]1Nc1nc(N)nc(C(C)(C)F)n1 [Compound 7.203],very good pre-emergence control,very good herbicidal post-emergence activity
C[C@H]1Cc2ccccc2[C@@H]1Nc1nc(N)nc(C(C)(C)F)n1 [Compound 7.228],very good pre-emergence control,very good herbicidal post-emergence activity
Cc1ccc2c(c1)[C@H](Nc1nc(N)nc(C(C)(C)F)n1)[C@@H](C)C2 [Compound 7.229],very good pre-emergence control,very good herbicidal post-emergence activity
Cc1ccc2c(c1)[C@H](Nc1nc(N)nc(CCSC(F)(F)F)n1)[C@@H](C)C2 [Compound 7.238],very good pre-emergence control,very good herbicidal post-emergence activity
C[C@H]1Cc2ccccc2[C@@H]1Nc1nc(N)nc(C(F)(F)F)n1 [Compound 7.239],very good pre-emergence control,very good herbicidal post-emergence activity
Cc1ccc2c(c1)[C@H](Nc1nc(N)nc(C(F)(F)F)n1)[C@@H](C)C2 [Compound 7.240],very good pre-emergence control,very good herbicidal post-emergence activity
C[C@H]1Cc2ccccc2[C@@H]1Nc1nc(N)nc(CCSC(F)(F)F)n1 [Compound 7.241],very good pre-emergence control,very good herbicidal post-emergence activity
C[C@H]1Cc2ccccc2[C@@H]1Nc1nc(N)nc(CC#N)n1 [Compound 7.242],very good pre-emergence control,very good herbicidal post-emergence activity
C[C@H]1Cc2ccccc2[C@@H]1Nc1nc(N)nc(C(F)F)n1 [Compound 7.244],very good pre-emergence control,very good herbicidal post-emergence activity
Cc1ccc2c(c1)[C@H](Nc1nc(C)nc(N)n1)CC2 [Compound 8.2],very good pre-emergence control,very good herbicidal post-emergence activity
Cc1nc(N)nc(N[C@@H]2CCc3ccc(F)cc32)n1 [Compound 8.3],very good pre-emergence control,very good herbicidal post-emergence activity
Cc1nc(N)nc(N[C@@H]2CCc3cc(C)c(C)cc32)n1 [Compound 8.7],very good pre-emergence control,very good herbicidal post-emergence activity
Cc1nc(N)nc(N[C@@H]2CCCc3ccccc32)n1 [Compound 8.11],very good pre-emergence control,very good herbicidal post-emergence activity
Cc1ccc2c(c1)[C@H](Nc1nc(C)nc(N)n1)CCC2 [Compound 8.12],very good pre-emergence control,very good herbicidal post-emergence activity
Cc1cc(C)c2c(c1)[C@H](Nc1nc(C)nc(N)n1)CCC2 [Compound 8.15],very good pre-emergence control,very good herbicidal post-emergence activity
Cc1ccc2c(c1)[C@H](Nc1nc(C)nc(N)n1)CCO2 [Compound 8.21],very good pre-emergence control,very good herbicidal post-emergence activity
CCc1nc(N)nc(N[C@@H]2CCc3ccccc32)n1 [Compound 8.24],very good pre-emergence control,very good herbicidal post-emergence activity
CCc1nc(N)nc(N[C@@H]2CCc3ccc(C)cc32)n1 [Compound 8.25],very good pre-emergence control,very good herbicidal post-emergence activity
